Consider two compounds from patent US20040132696A1, “Therapeutic agents for pigmentation and melanocyte growth inhibitory agents” (priority 1999, published 2004).

Read-outs that look alike come from different tables or passages of the source.

Holding throughout (type): cell-based
In assay [1] the test system is normal human epidermal keratinocytes (HEKn). Put plainly: Growth inhibition of cultured human keratinocytes (cell count by Coulter Counter). The note with it: Keratinocyte, 144 h, read-out: inhibition against keratinocytes. As to the method:
Keratinocytes: normal human epidermal keratinocytes (HEKn:C-001-5C, Kurabo Industries).
(§1) Melanocytes were cultured at 2×10^5 cells/well in MGM3 (Melanocyte Growth Medium 3, Takara Shuzo) used as a culture medium. Keratinocytes were cultured at 1×10^5 cells/well in KGM2 (Keratinocyte Growth Medium 2, Takara Shuzo) used as a culture medium. To each well was added 22-oxacalcitriol or calcitriol at a final concentration of 10^−7 M and cultivation was continued. On days 3 and 6 after the addition, the number of cells was determined by a Coulter Counter.

Assay [2] deals with normal human epidermal melanocytes (NHEM). The assay can be described thus: Growth inhibition of cultured human melanocytes (cell count by Coulter Counter). The note with it: Melanocyte, 144 h, read-out: inhibitory effect against the proliferation of melanocytes. As to the method: (§2) Melanocytes: normal human epidermal melanocytes (NHEM:KM-4009, Kurabo Industries).
as §1

A further assay deals with Human melanocytes. The assay can be described thus: Tritiated thymidine (3[H]-TdR) uptake by cultured human melanocytes. The note with it: 10^-7 M, day 1. The protocol:
as §2
Human melanocytes were cultured at 5×10^5 cells/well in MGM3 used as a culture medium, and 22-oxacalcitriol or calcitriol was added to each well at a final concentration of 10^−7 M to determine tritiated thymidine (^3[H]-TdR) uptake by cells in a liquid scintillation counter on days 1, 3 and 5 after the addition.

Setting [3] is: 10^-7 M, day 6, average of 5 experiments.

For `C=C1/C(=C\C=C2/CCC[C@]3(C)[C@@H]([C@H](C)OCCC(C)(C)O)CC[C@@H]23)C[C@@H](O)C[C@@H]1O` [22-oxacalcitriol], the inhibition at 0.1 µM in assay [1] (setting [3]) is 25%; in assay [2] (setting [3]) it was not below 30%.

On to `C=C1/C(=C\C=C2/CCC[C@]3(C)[C@@H]([C@H](C)CCCC(C)(C)O)CC[C@@H]23)C[C@@H](O)C[C@@H]1O` [calcitriol, 1α,25-dihydroxyvitamin D3], for which the “decrease in tritiated thymidine uptake” value with Human melanocytes came to 50%. Also, the figures for the inhibition at 0.1 µM in assay [1] and in assay [2] were 40% and not below 30%, respectively.
